Consider 17 compounds from US11166464B2, “Self-assembled active agents” (priority 2017, dated 2021).

Test [1] relates to A. brasiliensis ATCC16404. Briefly: MIC of aminoguanidine-aldehyde adducts, actives dissolved in all-purpose cleaner and diluted in MH broth. It is filed as cell-based, Aspergillus brasiliensis. To be noted: aminoguanidine adduct of the listed aldehyde; 4 × 10^5 spores/mL starting spore counts; Table 4. As to the method: General procedure for preparation of actives: Complexes were formed by treating 20 mg of aldehyde or ketone with 180 mg of aminoguanidine HCl stock solution (37 wt % aminoguanidine HCl in dH2O) and heating at 60° C. for 48 h. The resulting product mixtures were subsequently screened for antimicrobial activity.

Test [2] deals with Aspergillus brasillensis, ATCC16404. Briefly: Preservative test in home cleaning formulations. The class given is cell-based, Aspergillus brasiliensis. Conditions: aminoguanidine adducts of the named hydrophilic aldehydes.
For test [3], the system named is Aspergillus brasiliensis (ATCC 16404). Briefly: Viability of microbes in formula over time (log reduction in cell count). The class given is cell-based. Conditions: seven days, initial 5 × 10^6 cells/mL; for Log Reduction in APC formula: aminoguanidine complex of the listed aldehyde at 0.1 wt % in all-purpose cleaner; for Log Reduction in MDC formula: aminoguanidine complex of the listed aldehyde at 0.1 wt % in manual dish formula. The procedure: […] The total volume of the mixture was 5 mL. The inoculated mixture was kept in a shaker at 30° C. for 7 days. Microorganism viability was determined by plating […] of inoculated mixture on MH agar plates on days 0, 3, and 7.
A. Brasiliensis cell counts were monitored and counted over seven days.

Another test relates to Pseudomonas aeruginosa. Briefly: MIC and synergy (1/FICI) in cation-adjusted Mueller-Hinton broth, abs600 after 24 h. It is filed as cell-based. To be noted: for MIC (wt %): component alone, 24 h, 37° C. The procedure: (§1) To compare antimicrobial efficacy of self-assembled complexes to their components, fractional inhibitory concentration indices (FICIs) were calculated from measured minimum inhibitory concentrations (MICs) against Pseudomonas aeruginosa and Escherichia coli. The MIC of each substance was determined according to standard guidelines in cation-adjusted Mueller-Hinton broth at a total volume of ˜100 μl with test concentrations decreasing two-fold to span the empirically-determined MIC (J. Med. Chem., 59: 2126-2138 (2016)). Wells contained starting microbe concentrations of approximately 10^7 cells/mL. Absorbance at 600 nm (abs600) was determined immediately after inoculation using a 96 well plate reader. Plates were incubated at 37° C. and abs600 measured after 24 hours. For the purposes of these experiments, minimum inhibitory concentrations are defined as the minimum concentration observed to inhibit microbial growth over this time span, with a change in abs600 less than or equal to 0.1.
Following MIC testing, FICI were calculated as shown in Equation 1: […]
The FICI can be used to quantify the synergy between two components (X and Y). Specifically, 1/FICI can be used as a measure of synergy, interpreted as factors by which the potency of a given combination is greater than the sum of its parts (see Journal of Antimicrobial Chemotherapy, 52:1 (2003)). For example, in the present invention, synergy may be found when the effective amount of the self-assembled active agent is lower than the sum of the effective amounts of the two or more component molecules.
(§2) For the data in Table 2, when multiple components were used to form a complex, the amine component was present in excess of a 1:1 molar ratio.
The MICs determined as per above were then used to calculate FICIs. Note that 1/FICI values varied with subcomponent ratio; unless otherwise noted, the values shown in Table 3 represent a molar ratio of 6:1, amine:aldehyde.

In a further test the test system is Escherichia coli. Briefly: MIC in cation-adjusted Mueller-Hinton broth, abs600 after 24 h. Conditions: amine + aldehyde combined, amine in excess of 1:1 molar ratio, E. coli. It is filed as cell-based. The procedure:
as §1, §2

Test [4] relates to A. brasiliensis ATCC16404. Briefly: MIC of aminoguanidine-aldehyde adducts, actives dissolved in all-purpose cleaner and diluted in MH broth. The class given is cell-based, Aspergillus brasiliensis. Conditions: subcomponent alone (parent aldehyde, aminoguanidine or biocide standard), not the complex; Table 5.

Marks after values point to notes of the source that are not given here.

In the case of 2,4,6-trimethoxybenzaldehyde, in test [1], the “MIC (wt %)” value came out at 0.0595 wt %. The “Preservation of the high surfactant manual dish formula” value (shortened to “Preservation”) in test [2] was “enabled effective preservation”. The corresponding values for 2,6-dimethoxybenzaldehyde are 0.0149 wt % and “enabled effective preservation”. In the case of 2-hydroxyl-4-methoxybenzaldehyde, the “MIC (wt %)” value in test [1] stood at 0.0149 wt %. In addition, in test [3], the “Log Reduction in APC formula” value was found to be 1 and the “Log Reduction in MDC formula” value stood at 1.

Consider 4-hydroxybenzaldehyde, for which the “MIC (wt %)” value in test [1] is recorded as 0.0298 wt %. In test [2], the “Preservation” value was “enabled effective preservation”. Consider `COc1ccc(C=O)c(OC)c1` [2,4-dimethoxybenzaldehyde], for which, in test [3], the “Log Reduction in APC formula” value was found to be 6 and the “Log Reduction in MDC formula” value came out at 1. The corresponding values for `O=Cc1ccc(C=O)o1` [2,5-furandicarboxaldehyde] are 1 and 1. For `O=Cc1ccc(C=O)s1` [2,5-thiophenedicarboxaldehyde], in test [3], the “Log Reduction in APC formula” value came out at 2 and the “Log Reduction in MDC formula” value worked out at 1. For `O=Cc1cccc(C=O)c1Br` [2-bromoisophthalaldehyde], in test [3], the “Log Reduction in APC formula” value is 2 and the “Log Reduction in MDC formula” value amounted to 1. Regarding `Cl.N=C(NN)NN` [A, 1,3-diaminoguanidine], the “MIC (wt %)” value with Pseudomonas aeruginosa (P. aeruginosa) was 0.3^i wt %.

As for `NC(N)=NN=Cc1ccc(C=NN=C(N)N)cc1` [B + 5], the “MIC (wt %) of complex, given as aldehyde component” value with Pseudomonas aeruginosa (amine + aldehyde combined, amine in excess of 1:1 molar ratio, concentration of aldehyde component, P. aeruginosa) was 0.01^i wt %. Also, the “MIC (wt %) of complex, given as amine component” value with Pseudomonas aeruginosa (amine + aldehyde combined, amine in excess of 1:1 molar ratio, concentration of amine component, P. aeruginosa) is on record as 0.06^i wt %. On to `Cc1cc(C=NN=C(N)N)c(O)c(C=NN=C(N)N)c1` [B + 10], for which the “MIC (wt %) of complex, given as aldehyde component” value in the test on Escherichia coli (concentration of aldehyde component) is given as 0.002^ii wt %. In the test with Escherichia coli (concentration of amine component), the “MIC (wt %) of complex, given as amine component” value is given as 0.02^ii wt %. Regarding `O=Cc1ccc(C=O)cc1` [Entry 5, terephthalaldehyde], the “MIC (wt %)” value in the test on Pseudomonas aeruginosa (P. aeruginosa) is recorded as 0.3^i wt %. Turning to `O=Cc1cc(C=O)cc(C=O)c1` [Entry 7, benzene-1,3,5-tricarboxaldehyde], the “MIC (wt %)” value in the test on Pseudomonas aeruginosa (P. aeruginosa) is on record as 0.3^i wt %. In addition, the “Synergism (1/FICI) with B, extrapolated” value in the test on Pseudomonas aeruginosa (extrapolated from eight FICI measurements where the weight ratio of B:7 varied from 1:1 to 9:1) is 1000*. For aminoguanidine [B], the “MIC (wt %)” value in the test on Pseudomonas aeruginosa (P. aeruginosa) was >2^i wt %. For the same compound, the “MIC (wt %) subcomponent” value in test [4] is recorded as more than 0.4762 wt %. Consider glyoxal [Entry 1], for which, in the test with Pseudomonas aeruginosa (P. aeruginosa), the “MIC (wt %)” value is 0.04^i wt %. In the case of m-anisaldehyde, the “MIC (wt %)” value in test [1] was 0.0595 wt %. In test [2], the “Preservation” value is reported as “enabled effective preservation”. For vanillin isobutyrate, the “MIC (wt %)” value in test [1] was found to be 0.1190 wt %.
